# Assay results published in US20240041877A1, “DOSAGE REGIME AND METHOD FOR TREATING PULMONARY ARTERIAL HYPERTENSION” (Altavant Sciences GmbH, priority 2019, published 2024).
# Experiment: Part 2 (MAD): plasma pharmacokinetics after BID oral KAR5585 for 14 days (incl. accumulation ratios and dose proportionality)
# Details: for AUC0-12, Day 1 / AUC0-24, Day 14: mean
# [1] = 100 mg KAR5585 BID, fasted, Part 2 Cohort 1
# [2] = 100 mg KAR5585 BID, fed, Cohort 2
# [3] = 100 mg KAR5585 BID, fed, Part 2 Cohort 2
# [4] = 100 mg/dose Fasted Cohort 1, Day 1 AM, Geo. Mean
# [5] = 100 mg/dose Fasted Cohort 1, Day 1 AM, Mean
# [6] = 100 mg/dose Fasted Cohort 1, Day 14, Geo. Mean
# [7] = 100 mg/dose Fasted Cohort 1, Day 14, Mean
# [8] = 100 mg/dose Fed Cohort 2, Day 1 AM, Geo. Mean
# [9] = 100 mg/dose Fed Cohort 2, Day 1 AM, Mean
# [10] = 100 mg/dose Fed Cohort 2, Day 1 PM, Geo. Mean
# [11] = 100 mg/dose Fed Cohort 2, Day 1 PM, Mean
# [12] = 100 mg/dose Fed Cohort 2, Day 7 AM, Geo Mean
# [13] = 100 mg/dose Fed Cohort 2, Day 7 AM, Mean
# [14] = 100 mg/dose Fed Cohort 2, Day 7 PM, Geo Mean
# [15] = 100 mg/dose Fed Cohort 2, Day 7 PM, Mean
# [16] = 100 mg/dose Fed Cohort 2, Day 14, Geo Mean
# [17] = 100 mg/dose Fed Cohort 2, Day 14, Mean
# [18] = 200 mg/dose Fed Cohort 3, Day 1 AM, Geo Mean
# [19] = 200 mg/dose Fed Cohort 3, Day 1 AM, Mean
# [20] = 200 mg/dose Fed Cohort 3, Day 1 PM, Geo. Mean
# From the text: Food effect was to be evaluated in Part 1, Period 2.
# Pharmacokinetic data were to be summarized descriptively.
smiles,measurement,setting,value
"CCOC(=O)[C@@H]1CC2(CCN(c3cc(O[C@H](c4ccc(Cl)cc4-c4ccccc4)C(F)(F)F)nc(N)n3)CC2)CN1 [KAR5585, (S)-ethyl 8-(2-amino-6-((R)-1-(5-chloro-[1,1′-biphenyl]-2-yl)-2,2,2-trifluoroethoxy)pyrimidin-4-yl)-2,8-diazaspiro[4.5]decane-3-carboxylate]","half-life, Day 14","100 mg KAR5585 BID, fasted",2.49 h
same,"time peak plasma concentrations were reached, Day 1","100 mg KAR5585 BID, fasted, Cohort 1",0.75 to 2.0 h
same,"AUC0-12, Day 1",[1],62.8 ng·h/mL
same,"AUC0-24, Day 14",[1],99.8 ng·h/mL
same,"Mean CL/F, Day 1","100 mg KAR5585 BID, fed",2100 L/h
same,"Mean steady-state CL/F, Day 14","100 mg KAR5585 BID, fed",880 L/h
same,"mean apparent elimination half-life, Day 14","100 mg KAR5585 BID, fed",2.73 h
same,"Cmax (peak mean concentration), Day 1",[2],18.4 ng/mL
same,"Cmax (peak mean concentration), Day 14",[2],30 ng/mL
same,"mean Cmax plasma concentrations, range on all dosing days",[2],18.4 to 44.1 ng/mL
same,"median time to peak plasma concentrations, range on all dosing days and times",[2],0.75 to 4 h
same,"AUC0-12, Day 1",[3],55.5 ng·h/mL
same,"AUC0-24, Day 14",[3],122 ng·h/mL
same,C12,[4],BLQ
same,CL/F,[4],1850 L/h
same,Cmax/D,[4],0.158 (ng/mL)/mg
same,AUC0-12,[5],62.8 ng·h/mL
same,AUC0-∞,[5],71.1 ng·h/mL
same,C12,[5],BLQ
same,CL/F,[5],2380 L/h
same,Cmax/D,[5],0.167 (ng/mL)/mg
same,t1/2,[5],2.23 h
same,AUC0-12,[6],78.2 ng·h/mL
same,AUC0-24,[6],82.3 ng·h/mL
same,AUC0-24/D,[6],0.823 (hr*ng/mL)/mg
same,AUC0-∞,[6],85 ng·h/mL
same,C24,[6],BLQ
same,CL/F,[6],1280 L/h
same,Cmax,[6],20.1 ng/mL
same,Cmax/D,[6],0.201 (ng/mL)/mg
same,t1/2,[6],2.36 h
same,AUC0-12,[7],92.4 ng·h/mL
same,AUC0-24,[7],99.8 ng·h/mL
same,AUC0-24/D,[7],0.998 (hr*ng/mL)/mg
same,AUC0-∞,[7],105 ng·h/mL
same,C24,[7],BLQ
same,CL/F,[7],1450 L/h
same,Cmax/D,[7],0.213 (ng/mL)/mg
same,t1/2,[7],2.49 h
same,AUC0-12,[8],51.2 ng·h/mL
same,AUC0-∞,[8],51.7 ng·h/mL
same,C12,[8],BLQ
same,CL/F,[8],1940 L/h
same,Cmax,[8],17.7 ng/mL
same,Cmax/D,[8],0.177 (ng/mL)/mg
same,t1/2,[8],1.37 h
same,AUC0-12,[9],55.5 ng·h/mL
same,AUC0-∞,[9],55.9 ng·h/mL
same,C12,[9],BLQ
same,CL/F,[9],2100 L/h
same,Cmax,[9],18.4 ng/mL
same,Cmax/D,[9],0.184 (ng/mL)/mg
same,t1/2,[9],1.42 h
same,AUC0-12,[10],136 ng·h/mL
same,AUC0-24,[10],214 ng·h/mL
same,AUC0-24/D,[10],1.07 (hr*ng/mL)/mg
same,AUC0-∞,[10],152 ng·h/mL
same,CL/F,[10],658 L/h
same,Cmax,[10],39.8 ng/mL
same,Cmax/D,[10],0.398 (ng/mL)/mg
same,t1/2,[10],1.82 h
same,AUC0-12,[11],143 ng·h/mL
same,AUC0-24,[11],226 ng·h/mL
same,AUC0-24/D,[11],1.13 (hr*ng/mL)/mg
same,AUC0-∞,[11],156 ng·h/mL
same,CL/F,[11],675 L/h
same,Cmax,[11],44.1 ng/mL
same,Cmax/D,[11],0.441 (ng/mL)/mg
same,t1/2,[11],1.87 h
same,AUC0-12,[12],127 ng·h/mL
same,AUC0-∞,[12],137 ng·h/mL
same,C12,[12],BLQ
same,CL/F,[12],788 L/h
same,Cmax,[12],29.8 ng/mL
same,Cmax/D,[12],0.298 (ng/mL)/mg
same,t1/2,[12],2.82 h
same,AUC0-12,[13],129 ng·h/mL
same,AUC0-∞,[13],139 ng·h/mL
same,C12,[13],BLQ
same,CL/F,[13],800 L/h
same,Cmax,[13],31.3 ng/mL
same,Cmax/D,[13],0.313 (ng/mL)/mg
same,t1/2,[13],2.86 h
same,AUC0-12,[14],142 ng·h/mL
same,AUC0-24,[14],278 ng·h/mL
same,AUC0-24/D,[14],1.39 (hr*ng/mL)/mg
same,AUC0-∞,[14],168 ng·h/mL
same,C12,[14],6.27 ng/mL
same,CL/F,[14],699 L/h
same,Cmax,[14],25.8 ng/mL
same,Cmax/D,[14],0.258 (ng/mL)/mg
same,t1/2,[14],3.52 h
same,AUC0-12,[15],145 ng·h/mL
same,AUC0-24,[15],282 ng·h/mL
same,AUC0-24/D,[15],1.41 (hr*ng/mL)/mg
same,AUC0-∞,[15],173 ng·h/mL
same,CL/F,[15],717 L/h
same,Cmax/D,[15],0.284 (ng/mL)/mg
same,t1/2,[15],3.80 h
same,AUC0-12,[16],114 ng·h/mL
same,AUC0-24,[16],121 ng·h/mL
same,AUC0-24/D,[16],1.21 (hr*ng/mL)/mg
same,AUC0-∞,[16],121 ng·h/mL
same,C12,[16],BLQ
same,C24,[16],BLQ
same,CL/F,[16],874 L/h
same,Cmax,[16],28.5 ng/mL
same,Cmax/D,[16],0.285 (ng/mL)/mg
same,t1/2,[16],2.64 h
same,AUC0-12,[17],115 ng·h/mL
same,AUC0-24,[17],122 ng·h/mL
same,AUC0-24/D,[17],1.22 (hr*ng/mL)/mg
same,AUC0-∞,[17],122 ng·h/mL
same,C12,[17],BLQ
same,C24,[17],BLQ
same,CL/F,[17],880 L/h
same,Cmax,[17],30.0 ng/mL
same,Cmax/D,[17],0.300 (ng/mL)/mg
same,t1/2,[17],2.73 h
same,"Mean CL/F, Day 1","200 mg KAR5585 BID, fed",830 L/h
same,"Mean steady-state CL/F, Day 14","200 mg KAR5585 BID, fed",1200 L/h
same,"mean Cmax plasma concentrations, range on all dosing days","200 mg KAR5585 BID, fed, Cohort 3",42.6 to 90.9 ng/mL
same,AUC0-12,[18],243 ng·h/mL
same,AUC0-∞,[18],258 ng·h/mL
same,C12,[18],5.60 ng/mL
same,CL/F,[18],774 L/h
same,Cmax,[18],80.7 ng/mL
same,Cmax/D,[18],0.403 (ng/mL)/mg
same,t1/2,[18],2.81 h
same,AUC0-12,[19],257 ng·h/mL
same,AUC0-∞,[19],275 ng·h/mL
same,C12,[19],5.61 ng/mL
same,CL/F,[19],830 L/h
same,Cmax,[19],87.8 ng/mL
same,Cmax/D,[19],0.439 (ng/mL)/mg
same,t1/2,[19],2.91 h
same,AUC0-12,[20],333 ng·h/mL
same,AUC0-24,[20],583 ng·h/mL
same,AUC0-24/D,[20],1.46 (hr*ng/mL)/mg
